Data taken from ChEMBL document CHEMBL1129136, “Synthesis and evaluation of amino acid ester prodrugs of penciclovir” (Bioorg Med Chem Lett, 1996).

Assays:
[1] = Half life was measured at pH 1.0 and at 37 degree Celsius temperature; format: ADME
[2] = Half life was measured […] at 37 degree Celsius temperature by HPLC assay using a c18 reversed-phase column.; format: ADME
[3] = Half life was measured at pH 7.4 and at 37 degree Celsius temperature; format: ADME
[4] = Half life was measured at pH 8.0 and at 37 degree Celsius temperature; format: ADME
Mus musculus = test: Compound was tested to determine the total amount of penciclovir recovered in the urine over a 48-h period after a single oral dose of 0.2 mmol/kg.; format: functional
Vero = test: Compound was tested for its antiviral activity against HSV-1(KOS strain) in vero cells; format: functional, cell-based; conditions: Chlorocebus sabaeus

Row | Structure (SMILES) | half-life [1] | half-life [2] | half-life [3] | half-life [4] | Dose (urinary recovery) (Mus musculus) | EC50 (Vero)
1 | CCC(=O)OCC(CCn1cnc2c(O)nc(N)nc21)COC(=O)[C@@H](N)C(C)CC.Cl (some centres undefined) | 19 h | 83.5 h | 25 h | 19.9 h | 20% | > 100 µM
2 | CC(C)C(=O)OCC(CCn1cnc2c(O)nc(N)nc21)COC(=O)[C@@H](N)C(C)C.Cl (some centres undefined) | 47.5 h | 120 h | 19.1 h | 14.4 h | 20% | > 100 µM
3 | CC(=O)OCC(CCn1cnc2cnc(N)nc21)COC(C)=O [FAMCICLOVIR] | – | – | – | – | 33% | > 100 µM
4 | CC(C)[C@H](N)C(=O)OCC(CCn1cnc2c(O)nc(N)nc21)COC(=O)[C@@H](N)C(C)C.Cl.Cl | > 168 h | 30.9 h | 6.7 h | 6 h | 25% | 25.5 µM
5 | Nc1nc(O)c2ncn(CCC(CO)CO)c2n1 [PENCICLOVIR] | – | – | – | – | 9% | 8.1 µM
6 | CCCC(=O)OCC(CCn1cnc2c(O)nc(N)nc21)COC(=O)[C@@H](N)C(C)CC.Cl (some centres undefined) | 34 h | 93.7 h | 27 h | 19.9 h | 19% | 24.2 µM

More lines, main results first:

Row | half-life [1] | half-life [2] | half-life [3] | half-life [4] | Structure (SMILES) | Dose (urinary recovery) (Mus musculus) | EC50 (Vero)
7 | 33.3 h | 122 h | 18.4 h | 14.1 h | CCCC(=O)OCC(CCn1cnc2c(O)nc(N)nc21)COC(=O)[C@@H](N)C(C)C.Cl (some centres undefined) | 29% | 42 µM
8 | 19.4 h | 105 h | 24.8 h | 19.1 h | CCC(C)[C@H](N)C(=O)OCC(CCn1cnc2c(O)nc(N)nc21)COC(C)=O.Cl (some centres undefined) | 15% | > 100 µM
9 | > 168 h | 52.9 h | 11.4 h | 9.8 h | CCC(C)[C@H](N)C(=O)OCC(CCn1cnc2c(O)nc(N)nc21)COC(=O)[C@@H](N)C(C)CC.Cl.Cl (some centres undefined) | 9% | 42.3 µM
10 | 19.2 h | 104 h | 17.3 h | 13.6 h | CCC(=O)OCC(CCn1cnc2c(O)nc(N)nc21)COC(=O)[C@@H](N)C(C)C.Cl (some centres undefined) | 25% | > 100 µM
11 | 46.5 h | 83.5 h | 24.9 h | 19.4 h | CCC(C)[C@H](N)C(=O)OCC(CCn1cnc2c(O)nc(N)nc21)COC(=O)C(C)C.Cl (some centres undefined) | 13% | > 100 µM
12 | 19.4 h | 108 h | 13.2 h | 13.2 h | CC(=O)OCC(CCn1cnc2c(O)nc(N)nc21)COC(=O)[C@@H](N)C(C)C.Cl (some centres undefined) | 34% | > 100 µM
